Consider 2 compounds from patent US20250228869A1, “Benzodiazepine Pyrazolo Carboxamides as N-protein Inhibitors” (Pfizer Inc., priority 2024, published 2025).

Marks after values point to notes of the source that are not given here. Some results are limits rather than exact numbers.

For data set [1], the system named is RSV. The conditions noted are these: Antimicrobial Agents and Chemotherapy 2007 (Chapman et al); cited from earlier work.
Data set [2] in a line: Relay method using human hepatocytes (clearance). Format: in vitro ADME. Particulars: human hepatocytes incubations under relay conditions. The text has this: Relay Method Using Human Hepatocytes—Di, L., et al., Drug Metabolism and Disposition, 2012, 40, 1860-1865.
Pooled cryopreserved human hepatocytes of 10 donors were purchased from Celsis IVT (Baltimore, MD). This lot of pooled hepatocytes was used for all the studies. When selecting new lots of hepatocytes, enzyme activities need to be verified using marker compounds. Upon thawing, the hepatocytes were resuspended in Williams' medium E (custom formula number 91-5233EC; Invitrogen, Grand Island, NY) supplemented with HEPES and Na2CO3. The cells were counted using the trypan blue exclusion method, and the 24-well hepatocyte plates containing 0.5 million cells/ml were spiked with a compound at a final concentration of 1 μM (dimethyl sulfoxide, final concentration 0.025%; methanol, final concentration 0.125%), in a final incubation volume of 0.50 ml. […]
The LC mobile phases were as follows: (A) HPLC grade water containing 0.1% formic acid, and (B) acetonitrile containing 0.1% formic acid. […] Terfenadine was used as an internal standard for LC-MS/MS quantification in positive ion multiple reaction monitoring mode. All of the test compounds had good linearity with R^2>0.99, and the limit of quantitation was 1 nM for all of the compounds.
Human in vitro intrinsic clearance was calculated using methods as previously described in the reference above.

Data set [3] concerns RSV A2. As to the kind of experiment: RSV plaque reduction assay in HepG2 cells. Type of data set: cell-based. The conditions noted are these: human respiratory syncytial virus, HepG2, read-out: RSV A2 plaque, HepG2, EC50 (nM). The text has this:
The RSV plaque reduction assay is an infectivity assay which allows quantification of the number of infectious units in a distinct foci of RSV infection. As each plaque originates from a single infectious virus particle an accurate calculation of the anti-viral effect can be obtained by counting plaques in the presence and absence of an anti-viral compound. HepG2 cells (ECACC: 85011430) were passaged in flasks and seeded in 24-well plates in DMEM containing antibiotics and supplemented with 10% FBS. During inoculation and subsequent incubation, cells were cultured in DMEM containing 2% FBS. 100 plaque forming unit (PFU)/well of RSV (RSV A2 VR-1540) was mixed with serial dilutions of compound. Subsequently, 100 μL of the virus/compound mixtures was added to confluent HepG2 cell monolayers. Plates were incubated at 37° C. in a humidified 5% CO2 incubator for 2 hrs. The inoculum was then removed and 1 ml of overlay (4% CMC in 2% DMEM) was added to each well. Cells were cultured for 48 h at 37° C. in a humidified 5% CO2 incubator and then fixed with 75% acetone-25% methanol solution. Plates were washed under running water and blocking solution (2% skimmed milk powder in PBS-Tween) was added to each well and plates incubated on a shaker for 1 h at 37° C. […]
In general terms: Plaques are areas of infected cells; plaque reduction assays count them against a control.

The nature of data set [4]: In vitro bone marrow assay. Format: cell-based. The conditions noted are these: primary human bone marrow mononuclear cells, 5 days exposure, total cell count, read-out: Human Bone Marrow Tox IC50. The protocol:
In vitro bone marrow assay—Chen, W., et al., J. Pharmacokinetics and Pharmacodynamics, 2020, 47, 163-182.
Primary human bone marrow mononuclear cells (Lonza) were cultured in stemline II hematopoietic stem cell expansion medium (Sigma Aldrich), supplemented with 5% FBS and under induction by the following cytokines (R&D Systems): 25 ng/mL stem cell factor (SCF), ng/mL G-CSF, 10 ng/mL granulocyte macrophage-colony stimulating factor, 3 U/mL erythropoietin (EPO), 15 ng/mL thrombopoietin (TPO), 10 ng/mL IL3, 10 ng/mL IL6, and ng/mL Flt3 ligand. Cell cultures were maintained in the 37° C., 5% CO2, and 98% humidity incubator (see reference for further details). Cells were preincubated for 1 day and were then exposed to either DMSO or compound for 5 additional days. Cell counts were determined manually using a hemocytometer from 10 μL aliquots and converted to the total cell number by adjusting for the volume of the cell culture medium in each well. While the total cell count included myeloid, erythroid, and megakaryocytic lineages, neutrophil precursors comprised the majority of the total cell population given the stimulatory conditions of the cell culture. […]

Data set [5] can be described thus: Shake flask determination of distribution coefficient (log D). Type of data set: physicochemical. Particulars: 1-octanol / phosphate buffer. As to the method:
Shake flask method of determining log D—Miniaturized version of log D assay described in Stopher, D. and McClean, S. J. Pharm. Pharmacol. 1990, 42, 144.
Nadolol, mexiletine, propranolol, quinidine, amitriptyline, and chlorproazine were dissolved in DMSO to a concentration of 10 mM and used as controls in each plate. D-neo-Inositol, 5-[[(2E)-3-[4-[[(5E)-5-[[(3-chloro-2,6-difluorophenyl)methoxy]imino]-5,6-dideoxy-β-D-arabino-hexofuranosyl]oxy]-3-hydroxyphenyl]-2-methyl-1-oxo-2-propenyl]amino]-5-deoxy-1,2-O-methylene-(9Cl) (CAS 247598-17) is used as an Internal Standard (IS).
All liquid handling steps were performed by a Biomek FX. Buffer-saturated 1-octanol (149 μL/well) was added to duplicate 1 mL capacity 96-well plates. Test compounds (10 mM in DMSO; 2 μL/well) and controls (10 mM in DMSO; 2 μL/well) were transferred from Matrix 2D barcoded storage tubes to the 96-well plates.
Following the addition of 1-octanol saturated phosphate buffer (149 μL/well), the plates were sealed with silicone well cap-mats. […]
Samples were analyzed by micro-flow reversed-phase liquid chromatography coupled to tandem mass spectrometry (μfLC-MS/MS). […]
Peak areas were corrected by dilution factors and incorporating internal standard, and the ratio of the corrected peak areas were used to calculate the results (log D value). The log D value for each compound was calculated using the following equation: […]

On to `O=C(Nc1ccccc1F)N[C@H]1N=C(c2ccccc2)c2ccccc2NC1=O` [RSV604], for which the anti-RSV activity entry in data set [1] is recorded as “sub-micromolar”.
With `CCS(=O)(=O)c1ccc(-c2nn3c(c2C(=O)N[C@H]2N=C(c4ccccc4)c4cccc(F)c4NC2=O)OCC(C)(C)C3)c(F)c1` [Example 2, (S)-2-(4-(ethylsulfonyl)-2-fluorophenyl)-N-(9-fluoro-2-oxo-5-phenyl-2,3-dihydro-1H-benzo[e][1,4]diazepin-3-yl)-6,6-dimethyl-6,7-dihydro-5H-pyrazolo[5,1-b][1,3]oxazine-3-carboxamide], in data set [2], the “Human Hepatocyte CLint,app (mL/min/million)” value is reported as <0.14* mL/min/million. Besides, in data set [3], the 50% effective concentration (EC50) (in general, the concentration needed to bring the measured effect to its halfway point) came out at 3.5 nM. Besides, the IC50 (commonly the concentration at which inhibition is half-maximal) at 5 days in data set [4] was more than 40 µM. Moreover, the logD (in general, lipophilicity at a set pH, counting ionised and neutral species) in data set [5] is 3.
